Experimental data: patent US7049311B1, “Pyrrolbenzodiazepines” (Spirogen Limited, priority 1998, dated 2006)
“And” between values parts separate entries of the source, which are not always exact repeats. Identical values can stand only once.

Test system: human CNS tumour SF-295
Experiment: NCI human xenograft study
Format: in vivo, mice
Conditions: 5 doses
Procedure: These are carried out on nucle athymic mice with a disabled immune system. The human tumour tissue to be tested is implanted in their flanks, and whilst the control mouse receives no treatment, the others are subjected to varying doses of the test compound, which is administered intraperitoneally. The results are expressed as the toxicity of the compound, the amount of tumour growth, and the inhibition of growth.
UP2001 (80) was also evaluated against the human CNS tumour SF-295. Athymic nude mice bearing SF-295 were treated at doses of 0.40, 0.27 and 0.18 mg/Kg by injection given intravenously once daily for a total of 5 doses.

C=C1C[C@H]2C=Nc3cc(OCCCOc4cc5c(cc4OC)C(=O)N4CC(=C)C[C@H]4C=N5)c(OC)cc3C(=O)N2C1 [UP2001 (80)]
% T/C Low (0.18 mg/Kg intravenously once daily): 0% | Toxicity Low (0.18 mg/Kg intravenously once daily, mice dying): two and 2/6 | Tumour Free Low (0.18 mg/Kg intravenously once daily, surviving mice tumour free on day 27): 3 out of 4 and 3/4 | % T/C Med (0.27 mg/Kg intravenously once daily): 0% | Toxicity Med (0.27 mg/Kg intravenously once daily, mice dying): 1 and 1/6 | Tumour Free Med (0.27 mg/Kg intravenously once daily, surviving mice tumour free on day 27): all the surviving mice were tumour free and 5/5 | % T/C High (0.40 mg/Kg intravenously once daily): 0% | Toxicity High (0.40 mg/Kg intravenously once daily, mice dying): 2 and 2/6 | Tumour Free High (0.40 mg/Kg intravenously once daily, surviving mice tumour free on day 27): all the surviving mice were tumour free and 4/4
